Columns and labels:
CYP2B6 [1] = target: T1, CYP2B6 (Homo sapiens, UniProt P20813); conditions: both, 10 min, pH 7.4
CYP2B6 [2] = target: T1, CYP2B6; experiment: biochemical
HT29SN-38-RES cells = experiment: MDR reversal analysis with MTT assay, HT29SN-38-RES; type: cell-based, human; conditions: 72 hours, oxaliplatin is not a substrate for BCRP
Description: (§1) Control conditions consisted of full growth medium. All treatments were performed in triplicate.

[3] = cited from earlier work
MDCK-II-WT cells = experiment: MDR reversal analysis with MTT assay, MDCK-II-WT; type: cell-based, canine; conditions: Canis lupus familiaris, 72 h drug exposure, read-out: IC50 Value for Each Cell Line: MDCK-II-WT
Description: Cells were seeded in Nunc 96-well plates (2000 or 8000 cells/well for the MDCK-II and HT29 cells, respectively). Following cell attachment (12–24 h), drugs were added to a total volume of 200 µL. Control conditions consisted of full growth medium. All treatments were performed in triplicate. Following 72 h of drug exposure, MTT reagent was added for either 1 h (MDCK-II) or 3 h (HT29). For cell lysis and solubilization of the formazan crystals, DMSO was added to the MDCK-II cells, whereas acidified (0.02 M HCl) sodium dodecyl sulphate was added to the HT29 cells. […] Background optical density values were subtracted, and the average optical densities were calculated. Cell viability was calculated as percentage of untreated control cells. The mean IC50 values were determined using GraphPad Prism (version 6.0, San Diego, CA, USA).

CYP2C8 = CYP2C8 (Homo sapiens, UniProt P10632); conditions: both, 10 min, pH 7.4
CYP2C19 = CYP2C19 (Homo sapiens, UniProt P33261); experiment: CYP inhibition, CYP2C19; conditions: HLM, omeprazole substrate
BCRP [4] = target: T2, BCRP (Homo sapiens, UniProt Q9UNQ0); experiment: Cellular dye efflux assay (Hoechst 33342) in HT29SN-38-RES cells; type: cell-based; design: endogenous in cells; host or cells: HT29 SN-38-RES (drug-selected HT29); conditions: fluorescence microscopy and imaging cytometry
T2 sequence (Q9UNQ0 1-655): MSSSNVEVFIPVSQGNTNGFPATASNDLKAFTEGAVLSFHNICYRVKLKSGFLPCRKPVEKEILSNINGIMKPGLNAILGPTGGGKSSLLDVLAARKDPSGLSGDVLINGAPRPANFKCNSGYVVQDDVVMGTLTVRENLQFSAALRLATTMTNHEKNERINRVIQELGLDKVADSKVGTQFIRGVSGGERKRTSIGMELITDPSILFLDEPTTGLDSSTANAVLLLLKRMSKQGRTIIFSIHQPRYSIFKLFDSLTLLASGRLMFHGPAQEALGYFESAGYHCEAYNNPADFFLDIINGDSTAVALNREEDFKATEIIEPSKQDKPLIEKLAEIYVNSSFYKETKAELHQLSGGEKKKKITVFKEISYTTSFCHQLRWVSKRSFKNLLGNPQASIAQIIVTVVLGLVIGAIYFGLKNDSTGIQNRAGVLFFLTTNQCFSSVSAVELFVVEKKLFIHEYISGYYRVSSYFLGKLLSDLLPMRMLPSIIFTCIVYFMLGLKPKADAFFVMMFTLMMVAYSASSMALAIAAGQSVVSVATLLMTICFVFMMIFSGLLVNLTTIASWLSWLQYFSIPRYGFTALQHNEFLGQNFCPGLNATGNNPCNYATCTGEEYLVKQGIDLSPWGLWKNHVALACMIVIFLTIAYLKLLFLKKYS
Description: HT29 cells were seeded either into a 96-well Nunclon plate (Thermo Fisher Scientific, Roskilde, Denmark) at a density of 6000 cells/well (for Celigo Imaging Cytometry) or into a Nunc 6-well plate at a density of 150,000 cells/well (for fluorescence microscopy). […] Then, the cells were washed with ice-cold PBS to remove excess Hoechst dye. Drugs were added again and the cells were incubated for 1h at 37 °C. The plates were analyzed with either fluorescence microscopy (6-well plates) or imaging cytometry (96-well plates). For the Celigo Imaging Cytometry (Lawrence, MA, USA), the application “Target 1 + 2 (merge)” was used, and the mean fluorescence intensities were measured and data presented as percentage of parental control.

OAT3 = target: T3, OAT3 (Homo sapiens, UniProt Q8TCC7); experiment: Fluorometric transporter inhibition, OAT3-CHO; type: in vitro ADME; conditions: CF substrate
T3 construct: expressed in transfected cells; host or cells: CHO
Description: (§2) Cells were seeded in a 96-well plate (20,000 cells/well) and used on days 2 or 3 post-seeding. […] Subsequently, substrate was added to the plate followed by 20 min incubation at 37 °C. The plate was then washed with cold assay buffer followed by fluorescence reading on a plate reader. The tested transporters, cell lines, substrates, and reference inhibitors are shown in the Supplementary Materials (Tables S1 and S2).
(§3) 110 Table S1. […]
OAT3 (h) inhibition (OAT3-CHO, CF substrate) […]
(§4) The IC50 values are shown for the analysed transporters with […]

CYP2D6 = CYP2D6 (Homo sapiens, UniProt P10635); conditions: both, pH 7.4
OATP1B1 = target: T4, OATP1B1 (Homo sapiens, UniProt Q9Y6L6); experiment: Fluorometric transporter inhibition, OATP1B1-CHO; type: in vitro ADME; conditions: FMTX substrate
T4 construct: expressed in transfected cells; host or cells: CHO
Description: as §2
110 Table S1. In vitro DMPK analysis of transporter inhibition
OATP1B1 OATP1B1-CHO Fluorescein methotrexate Rifampicin […]
OATP1B1 (h) inhibition (OATP1B1-CHO, FMTX substrate) […]
as §4

OATP1B3 = target: T5, OATP1B3 (Homo sapiens, UniProt Q9NPD5); experiment: Fluorometric transporter inhibition, OATP1B3-CHO; type: in vitro ADME; conditions: FMTX substrate
T5 construct: expressed in transfected cells; host or cells: CHO
Description: as §2, §3
OATP1B3 OATP1B3-CHO Fluorescein methotrexate Rifampicin […]
OATP1B3 (h) inhibition (OATP1B3 -CHO, FMTX substrate) […]
as §4

HT29PAR cells = experiment: MDR reversal analysis with MTT assay, HT29PAR; type: cell-based; conditions: Homo sapiens, 72 h drug exposure, read-out: IC50 Value for Each Cell Line: HT29PAR
Description: as §1

BCRP [5] = target: T2, BCRP; experiment: […] ATPase assay with recombinant BCRP membranes; type: biochemical; design: purchased Solvo Biotechnology (via Sigma-Aldrich/Merck) SB-BCRP-M; conditions: sulfasalazine alone; basal activity 50.68
Description: After incubation with test compounds, MgATP was added to each well and incubated at 37 °C for 10 min. The ATPase reaction was stopped by the addition of 1x Developer solution at room temperature (RT). Two minutes after, 100 µL Blocker solution was added and the plate was incubated for 30 min at 37 °C for 30 min. The optical densities were measured at 620 nm using a PowerWave X Microplate spectrophotometer (BioTek, Bad Friedrichshall, Germany).

[6] = Apparent permeability across Caco-2 cell monolayers; conditions: human, Caco-2, pH 7.4
Description: Bidirectional transport experiments with [3H]-estrone-3-sulfate were completed with monolayers of Caco-2 cells from the American Type Culture Collection (ATCC) cultured on Transwell permeable supports for 27 days in Dulbecco’s modified Eagle’s medium, supplemented with 10% FBS, 10 μL·mL^−1 nonessential amino acids (×100), and 100 U·mL^−1 to 100 μg·mL^−1 penicillin-streptomycin solution. The transepithelial electrical resistance was measured across Caco-2 cell monolayers with an Endohm 12-cup electrode chamber (World Precision Instruments Inc., Sarasota, FL, USA) connected volt meter (EVOM, World Precision Instruments Inc., Sarasota, FL, USA) to ensure that cell monolayers were electrically tight before initiating transport experiments. Cell monolayers were allowed to equilibrate to room temperature before the resistance was measured. Prior to initiating the transport experiments, the cell monolayers were pre-incubated in transport buffer (HBSS supplemented with 10 mM HEPES, pH 7.4, and 0.05 % BSA) for 30 min. […] For transport experiments in the apical to basolateral direction, samples of 100 µL were taken from the basoteral compartment (volume 1 mL) at t = 15, 30, 45, 60, 90, and 120 min. From transport experiments in the basolateral to apical direction, samples of 50 µL were taken from the apical compartment (volume 0.5 mL) at the same time points. The withdrawn sample volume from the acceptor compartments were immediately replaced with an equal volume of blank transport buffer. The withdrawn samples were pipetted into scintillation vials and mixed with 2 mL of scintillation fluid. […] Transport of mannitol was measured to validate the barrier integrity of the Caco-2 cell monolayers.
Data treatment: The accumulated amount of compound (Qt, nmol) appearing in the donor compartment was plotted against time. The steady-state flux of compound was calculated as the slope of the linear part of this plot, thus correcting for lag-time effects. The apparent permeability was subsequently calculated with Equation (1):(1) P=J/C_0=Q_t/(C0*A_t) where J represents the steady state flux (nmol·cm^−2·min^−1), C0 represents the initial concentration in the donor compartment, At denotes the area of the permeable support (1.12 cm^2), and Qt is the accumulated amount of compound (nmol) in the receiver compartment at time t (min).
The ratio between apparent permeability in the basolateral to apical direction and the apparent permeability in the opposite direction (efflux ratio = PB−A/PA−B ) was used as a measure of active efflux transport.

T1 sequence (P20813 whole entry): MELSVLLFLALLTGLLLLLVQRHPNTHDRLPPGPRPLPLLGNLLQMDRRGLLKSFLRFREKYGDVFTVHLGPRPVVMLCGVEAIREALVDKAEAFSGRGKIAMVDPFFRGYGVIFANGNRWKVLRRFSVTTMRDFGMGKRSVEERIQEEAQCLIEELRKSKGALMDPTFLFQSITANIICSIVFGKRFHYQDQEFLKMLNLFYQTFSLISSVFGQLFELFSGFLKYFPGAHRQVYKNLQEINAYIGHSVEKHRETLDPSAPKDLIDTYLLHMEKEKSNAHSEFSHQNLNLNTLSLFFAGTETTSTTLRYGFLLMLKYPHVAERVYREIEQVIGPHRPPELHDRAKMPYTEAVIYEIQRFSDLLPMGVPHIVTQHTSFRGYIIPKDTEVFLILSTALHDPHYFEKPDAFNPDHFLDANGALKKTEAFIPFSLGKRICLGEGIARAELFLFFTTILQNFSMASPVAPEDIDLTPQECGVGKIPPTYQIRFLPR
T5 sequence (Q9NPD5 whole entry): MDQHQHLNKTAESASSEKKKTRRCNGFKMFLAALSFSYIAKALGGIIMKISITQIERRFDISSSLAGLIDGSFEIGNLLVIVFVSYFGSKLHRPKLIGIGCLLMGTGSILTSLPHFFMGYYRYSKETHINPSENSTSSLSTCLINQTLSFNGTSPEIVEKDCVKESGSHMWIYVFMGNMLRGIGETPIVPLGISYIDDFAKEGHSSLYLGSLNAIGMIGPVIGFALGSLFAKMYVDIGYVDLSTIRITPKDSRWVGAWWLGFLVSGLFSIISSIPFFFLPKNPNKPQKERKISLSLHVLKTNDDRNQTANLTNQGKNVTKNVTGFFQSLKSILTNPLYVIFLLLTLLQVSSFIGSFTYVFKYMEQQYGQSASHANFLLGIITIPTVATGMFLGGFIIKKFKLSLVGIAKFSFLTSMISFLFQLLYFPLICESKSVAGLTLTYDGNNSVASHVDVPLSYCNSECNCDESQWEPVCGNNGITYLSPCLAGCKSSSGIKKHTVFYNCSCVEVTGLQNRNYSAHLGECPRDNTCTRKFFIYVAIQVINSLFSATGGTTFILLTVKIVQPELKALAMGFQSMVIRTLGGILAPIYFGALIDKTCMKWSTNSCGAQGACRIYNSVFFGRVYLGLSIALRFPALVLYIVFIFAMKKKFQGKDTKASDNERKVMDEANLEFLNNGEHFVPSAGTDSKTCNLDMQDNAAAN
T4 sequence (Q9Y6L6 whole entry): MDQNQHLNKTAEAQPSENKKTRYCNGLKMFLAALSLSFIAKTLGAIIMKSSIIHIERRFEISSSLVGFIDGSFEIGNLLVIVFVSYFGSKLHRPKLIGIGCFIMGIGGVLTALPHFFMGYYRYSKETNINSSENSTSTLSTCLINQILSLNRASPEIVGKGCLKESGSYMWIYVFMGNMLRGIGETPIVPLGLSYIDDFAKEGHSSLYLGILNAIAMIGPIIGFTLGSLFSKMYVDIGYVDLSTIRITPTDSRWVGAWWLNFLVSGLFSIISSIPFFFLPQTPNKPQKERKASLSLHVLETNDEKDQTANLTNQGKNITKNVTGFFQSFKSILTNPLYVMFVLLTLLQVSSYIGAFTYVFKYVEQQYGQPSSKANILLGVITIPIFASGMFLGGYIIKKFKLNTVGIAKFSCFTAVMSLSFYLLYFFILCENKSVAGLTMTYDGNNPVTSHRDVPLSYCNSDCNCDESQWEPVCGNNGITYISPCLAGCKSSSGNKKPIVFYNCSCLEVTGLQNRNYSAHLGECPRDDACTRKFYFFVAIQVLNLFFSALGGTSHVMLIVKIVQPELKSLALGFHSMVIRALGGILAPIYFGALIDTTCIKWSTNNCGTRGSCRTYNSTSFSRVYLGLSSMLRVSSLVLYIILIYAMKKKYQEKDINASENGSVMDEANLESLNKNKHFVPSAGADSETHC
T3 sequence (Q8TCC7 whole entry): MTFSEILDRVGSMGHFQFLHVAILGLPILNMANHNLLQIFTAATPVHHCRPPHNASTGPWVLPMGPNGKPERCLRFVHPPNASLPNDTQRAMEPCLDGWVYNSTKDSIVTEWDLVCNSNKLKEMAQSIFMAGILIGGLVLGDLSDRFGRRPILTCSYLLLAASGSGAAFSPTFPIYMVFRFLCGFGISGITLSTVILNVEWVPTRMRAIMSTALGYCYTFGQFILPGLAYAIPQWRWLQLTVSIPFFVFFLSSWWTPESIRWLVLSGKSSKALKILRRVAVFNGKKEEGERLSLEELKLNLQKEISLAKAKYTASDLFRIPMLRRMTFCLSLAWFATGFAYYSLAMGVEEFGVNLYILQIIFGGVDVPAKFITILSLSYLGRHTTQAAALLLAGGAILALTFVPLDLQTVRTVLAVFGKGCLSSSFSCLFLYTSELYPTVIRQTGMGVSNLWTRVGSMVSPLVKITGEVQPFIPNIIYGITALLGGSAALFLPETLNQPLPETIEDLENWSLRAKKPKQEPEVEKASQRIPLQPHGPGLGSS
Sequence of CYP2D6 (P10635 whole entry): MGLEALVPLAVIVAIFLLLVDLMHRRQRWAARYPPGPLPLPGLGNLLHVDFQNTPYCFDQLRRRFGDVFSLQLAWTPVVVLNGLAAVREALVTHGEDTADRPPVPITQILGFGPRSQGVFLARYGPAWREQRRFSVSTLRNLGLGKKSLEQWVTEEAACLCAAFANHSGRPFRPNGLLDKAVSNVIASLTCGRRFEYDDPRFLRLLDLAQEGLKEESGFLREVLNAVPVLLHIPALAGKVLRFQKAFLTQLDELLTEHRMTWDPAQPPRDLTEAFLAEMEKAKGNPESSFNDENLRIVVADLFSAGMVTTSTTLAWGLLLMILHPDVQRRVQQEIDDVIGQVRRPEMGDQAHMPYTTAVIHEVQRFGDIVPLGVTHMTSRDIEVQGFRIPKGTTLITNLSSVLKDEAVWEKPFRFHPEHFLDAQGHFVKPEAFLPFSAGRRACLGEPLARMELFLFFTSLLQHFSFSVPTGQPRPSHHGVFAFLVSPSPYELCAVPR
Sequence of CYP2C19 (P33261 whole entry): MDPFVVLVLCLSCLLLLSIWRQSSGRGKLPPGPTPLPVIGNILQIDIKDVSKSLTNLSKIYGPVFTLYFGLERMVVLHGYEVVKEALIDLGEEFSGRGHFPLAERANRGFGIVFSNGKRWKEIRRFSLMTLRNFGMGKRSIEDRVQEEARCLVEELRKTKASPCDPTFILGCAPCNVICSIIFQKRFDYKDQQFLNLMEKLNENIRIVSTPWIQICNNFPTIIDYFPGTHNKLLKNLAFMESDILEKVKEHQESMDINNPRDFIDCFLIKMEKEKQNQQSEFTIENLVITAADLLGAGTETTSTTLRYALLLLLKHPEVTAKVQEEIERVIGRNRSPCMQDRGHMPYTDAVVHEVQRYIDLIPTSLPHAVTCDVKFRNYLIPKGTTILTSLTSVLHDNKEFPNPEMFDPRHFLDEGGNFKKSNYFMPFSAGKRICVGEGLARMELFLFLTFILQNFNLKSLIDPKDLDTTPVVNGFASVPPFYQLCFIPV
Sequence of CYP2C8 (P10632 whole entry): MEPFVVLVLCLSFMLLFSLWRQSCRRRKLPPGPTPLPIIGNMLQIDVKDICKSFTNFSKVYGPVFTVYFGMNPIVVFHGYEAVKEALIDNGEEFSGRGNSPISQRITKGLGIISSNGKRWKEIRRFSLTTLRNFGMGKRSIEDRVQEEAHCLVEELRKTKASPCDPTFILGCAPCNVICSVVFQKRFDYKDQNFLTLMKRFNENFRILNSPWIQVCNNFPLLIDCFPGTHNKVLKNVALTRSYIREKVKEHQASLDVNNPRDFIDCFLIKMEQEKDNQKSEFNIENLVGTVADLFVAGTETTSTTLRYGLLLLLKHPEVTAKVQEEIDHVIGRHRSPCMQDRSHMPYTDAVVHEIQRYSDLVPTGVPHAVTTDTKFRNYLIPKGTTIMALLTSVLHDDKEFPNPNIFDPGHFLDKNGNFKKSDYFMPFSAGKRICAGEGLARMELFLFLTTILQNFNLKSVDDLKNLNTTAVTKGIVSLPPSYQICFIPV

COC(=O)[C@H](c1ccccc1Cl)N1CCc2sccc2C1 [Clopidogrel]
nH (CYP2B6 [1]): 1.3
IC50 (CYP2B6 [2]): 740 nM

COc1ccc2c3c([nH]c2c1)[C@H](CC(C)C)N1C(=O)[C@H](CCC(=O)OC(C)(C)C)NC(=O)[C@@H]1C3 [Ko143, reference compound]
combinatorial effect with oxaliplatin on cell viability (HT29SN-38-RES cells): no added effects
stability in plasma [3]: not stable in plasma

O=C1c2c(O)ccc(O)c2C(=O)c2c(NCCNCCO)ccc(NCCNCCO)c21 [Mitoxantrone]
IC50 (MDCK-II-WT cells): 157 ± 23 nM

CC(C)(O)c1ccccc1CC[C@@H](SCC1(CC(=O)O)CC1)c1cccc(/C=C/c2ccc3ccc(Cl)cc3n2)c1 [Montelukast]
nH (CYP2C8): 0.8

CCN(CC)CC#CCOC(=O)C(O)(c1ccccc1)C1CCCCC1 (stereo not drawn) [Oxybutynin]
nH (CYP2C19): 1.0

C/C=C/C[C@@H](C)C(=O)[C@H]1C(=O)N[C@@H](C(C)C)C(=O)N(C)CC(=O)N(C)[C@@H](CC(C)C)C(=O)N[C@@H](C(C)C)C(=O)N(C)[C@@H](CC(C)C)C(=O)N[C@@H](C)C(=O)N[C@H](C)C(=O)N(C)[C@@H](CC(C)C)C(=O)N(C)[C@@H](CC(C)C)C(=O)N(C)[C@@H](C(C)C)C(=O)N1C [PSC833, reference compound]
Hoechst accumulation in resistant cells (BCRP [4]): did not have any effects

CCCN(CCC)S(=O)(=O)c1ccc(C(=O)O)cc1 [Probenecid]
nH (OAT3): 0.6

C=C[C@H]1C[N@@]2CC[C@H]1C[C@@H]2[C@@H](O)c1ccnc2ccc(OC)cc12 [Quinidine]
nH (CYP2D6): 1.1

CO[C@H]1/C=C/O[C@@]2(C)Oc3c(C)c(O)c4c(O)c(c(/C=N/N5CCN(C)CC5)c(O)c4c3C2=O)NC(=O)/C(C)=C\C=C\[C@H](C)[C@H](O)[C@@H](C)[C@@H](O)[C@@H](C)[C@H](OC(C)=O)[C@@H]1C [Rifampicin]
nH (OATP1B1): 0.6
IC50 (OATP1B1; NC: not calculable): 2200 nM
nH (OATP1B3): 0.4
IC50 (OATP1B3; NC: not calculable): 5400 nM

CCc1c2c(nc3ccc(O)cc13)-c1cc3c(c(=O)n1C2)COC(=O)[C@]3(O)CC [SN-38, 7-Ethyl-10-hydroxycamptothecin]
IC50 (HT29PAR cells): 16 ± 10 nM

O=C(O)c1cc(/N=N/c2ccc(S(=O)(=O)Nc3ccccn3)cc2)ccc1O [Sulfasalazine, reference compound]
maximal ATPase activity (BCRP [5]): 104.8 nmol Pi/mg protein/min

CC[C@@]1(O)C(=O)OCc2c1cc1n(c2=O)Cc2cc3c(CN(C)C)c(O)ccc3nc2-1 [Topotecan]
IC50 (HT29PAR cells): 8 ± 3 nM

C[C@]12CC[C@@H]3c4ccc(OS(=O)(=O)O)cc4CC[C@H]3[C@@H]1CCC2=O [[^3H]-estrone-3-sulfate]
apparent permeability in the efflux direction (basolateral to apical) (Caco-2 cell monolayers): 2.7 ± 0.2 × 10^−5 cm/second
apparent permeability in the opposite direction (apical to basolateral) (Caco-2 cell monolayers): 2.2 ± 0.01 × 10^−6 cm/second
efflux ratio (PB-A/PA-B) (Caco-2 cell monolayers): 12.2

OC[C@@H](O)[C@@H](O)[C@H](O)[C@H](O)CO [mannitol]
Papp at 120 min, 0.8 µCi/mL [6]: 0.21 ×10⁻⁶ cm/s

— paper PMC7140522, “The Pyrazolo[3,4-d]pyrimidine Derivative, SCO-201, Reverses Multidrug Resistance Mediated by ABCG2/BCRP” (Cells, 2020)
